Assay [1] deals with HPV-transformed tumor cells. The settings on record: mice; cited from earlier work.
Assay [2] has as its system mouse anti-HPV16 E7 mAb ED17. The assay is described as follows: Dot immunoassay with anti-HPV16 E7 mAb ED17. It is filed as binding. Conditions: for Binding to mAb ED17 in dot immunoassay: 15-mer peptide spotted on membrane, primary antibody 1:500; for Linear determinant recognized by mAb ED17 (epitope mapping): dot immunoassays using 6-mer peptides offset by one residue. The method, then:
The peptides corresponding to the three peptide sequences were synthetized and used as antigens in dot immunoassay experiments with MAb-ED17, a mouse monoclonal IgG, raised to the full length E7 oncoprotein. Peptide purity was controlled by analytical HPLC, and the molecular mass of purified peptides confirmed by fast atomic bombardment mass spectrometry. Peptides were dissolved in 0.9% NaCl, aliquoted and stored at −20° C.
Nitrocellulose membranes (Nytran […] pore size, Schleicher & Schüll) were pretreated for 1 min in 4% BSA (bovine serum albumin)/10 mM Tris-HCl, pH 7.5/150 mM NaCl, followed by 10 min activation with 2.5% glutaraldehyde. Peptides (5 Φg) were spotted on the activated membrane, left to dry for 1 hr at room temperature, and probed in phosphate-buffered saline (PBS) containing 4% BSA, 0.1% (v/v) Tween 20, and the primary antibody (1:500). Primary antibody was mouse anti-HPV16 E7 monoclonal IgG1 raised to amino acids 1-98 representing full length E7 (ED17, cat # sc-6981, Santa Cruz Biotechnology, Inc., Santa Cruz, Calif.). Following a 1 h incubation at room temperature, the membrane was washed three times for 10 mins with PBS containing 4% BSA, 0.1% Tween-20 and incubated with horseradish peroxidase-conjugated affinity-purified sheep anti-mouse IgG for 1 h (1:2500; Santa Cruz Biotechnology). Membrane was washed in PBS (4 times for 5 mins), and immunoblots were developed using the enhanced chemiluminescence detection assay (ECL Western blotting analysis system, Amersham Pharmacia Biotech, Milan, Italy).
The identification of the H2-E^k presented HPV 16 E7 epitope was further ananyzed by epitope mapping. Dot immunoassays by using 6-mer peptides offset by one amino acid residue confirmed that the anti-E7 mAb recognized the linear determinant HPV 16 E52-61 YNIVTFCCKC (SEQ ID NO:108) present in the 15-mer peptide RAHYNIVTFCCKCDS (SEQ ID NO:61), having the highest binding potential to the mouse MHC II molecule, and a low degree of similarity to host proteins.
Four peptides were analyzed for epitopic determinants in dot immunoassay tests: E725-39 YEQLNDSSEEEDEID (control; SEQ ID NO:76); E784-98 MGTLGIVCPICSQKP (SEQ ID NO:71); E72-16 HGDTPTLHEYMLDLQ (SEQ ID No:69); E749-63 RAHYNIVTFCCKCDS (SEQ ID NO:61); and E732-46 SEEEDEIDGPAGQAE (SEQ ID NO:39). […] As expected, high similarity peptide E732-46 SEEEDEIDGPAGQAE (SEQ ID NO:39) was not reactive (FIG. 1, peptide 5).
E749-63 RAHYNIVTFCCKCDS (SEQ ID NO:61) was further analyzed by epitope mapping.

A further assay relates to MAb-ED17. The assay is described as follows: NMR spectra confirming epitope screening. It is filed as binding, mouse. The source says: To confirm the epitope screening results, NMR spectra were obtained that confirmed the high affinity of MAb-ED17 towards the predicted epitopic peptide RAHYNIVTFCCKCDS (SEQ ID NO:61).

The text below walks through data of patent US20070111261A1, “Antigens” (priority 2001, published 2007).

“Also recorded” adds a separate entry of the source.

Regarding “HPV E744-62 peptide: polypeptide comprising amino acids 44-62 of HPV E7 protein (QAEPDRAHYNIVTFCCKCD; UniProt P03129 44-62, looked up, fragment)”, the “Prevention of outgrowth of HPV-transformed tumor cells” value in assay [1] is given as “effective for preventing outgrowth”.

Regarding “RAHYNIVTFCCKCDS (listed as Human papillomavirus)”, in assay [2], the “Binding to mAb ED17 in dot immunoassay” value was “Significant binding; also recorded: significant signal”. Also, the “Affinity of MAb-ED17 towards peptide by NMR spectra” value in the assay on MAb-ED17 was “high affinity”.

As to “SEEEDEIDGPAGQAE (listed as Human papillomavirus)”, the “Binding to mAb ED17 in dot immunoassay” value in assay [2] was “not reactive”.

On to “MGTLGIVCPICSQKP (listed as Human papillomavirus)”, for which, in assay [2], the “Binding to mAb ED17 in dot immunoassay” value is listed as “not recognized”.

As to AHYNIVTFCCKC, the “Linear determinant recognized by mAb ED17 (epitope mapping)” value in assay [2] was “recognized”.

“HGDTPTLHEYMLDLQ (listed as Human papillomavirus)”: in assay [2], the “Binding to mAb ED17 in dot immunoassay” value is on record as “not recognized; also recorded: No immune reaction”.

As for “YNIVTFCCKC (listed as Human papillomavirus)”, the “Linear determinant recognized by mAb ED17 (epitope mapping)” value in assay [2] is “recognized”.

Consider “YEQLNDSSEEEDEID (listed as Human papillomavirus)”, for which the “Binding to mAb ED17 in dot immunoassay” value in assay [2] is recorded as “no binding”.
